What all share (assay): relative viability (nuclei count vs DMSO), 5 days (fraction); higher = more cells survive
Compound in the assay “FG-4592 + Foretinib”: Cc1nc(C(=O)NCC(=O)O)c(O)c2ccc(Oc3ccccc3)cc12 [FG-4592] + COc1cc2c(Oc3ccc(NC(=O)C4(C(=O)Nc5ccc(F)cc5)CC4)cc3F)ccnc2cc1OCCCN1CCOCC1 [Foretinib] (partner 0.25 µM)
The essentials: (§1)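 Relative viability divides the nuclei count in treated wells by that in vehicle wells. Lung cancer cell lines were seeded in 1536-well plates, dosed by pin tool the next day, and fixed and stained after 5 days in one step with final 0.05% Triton X-100, 1% formaldehyde and 1 ug/ml Hoechst. Dosing was a single drug or a fixed anchor-drug dose plus five library-drug doses (not always all listed) in √10 steps, and values are medians of duplicate plates imaged at 4×.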

Compound in the assay “FG-4592 + Bortezomib”: Cc1nc(C(=O)NCC(=O)O)c(O)c2ccc(Oc3ccccc3)cc12 [FG-4592] + CC(C)C[C@H](NC(=O)[C@H](Cc1ccccc1)NC(=O)c1cnccn1)B(O)O [Bortezomib] (partner 0.002 µM)
The essentials: as §1

Compound in the assay “IU1-47 + Tozasertib”: CC1=CC(=C(N1C2=CC=C(C=C2)Cl)C)C(=O)CN3CCCCC3 [IU1-47] + Cc1cc(Nc2cc(N3CCN(C)CC3)nc(Sc3ccc(NC(=O)C4CC4)cc3)n2)n[nH]1 [Tozasertib] (partner 0.1 µM)
In short, it runs like this:
as §1

Compound in the assay “FG-4592 + Linsitinib”: Cc1nc(C(=O)NCC(=O)O)c(O)c2ccc(Oc3ccccc3)cc12 [FG-4592] + C[C@]1(O)C[C@@H](c2nc(-c3ccc4ccc(-c5ccccc5)nc4c3)c3c(N)nccn32)C1 [Linsitinib] (partner 1 µM)
In short, it runs like this:
as §1

Consider PC-3 [JPC-3], for which the relative viability in the assay with FG-4592 + Foretinib (first compound 0.08 µM) is 1.09; with FG-4592 + Foretinib (first compound 0.253 µM) it was 0.937; in the assay with FG-4592 + Foretinib (first compound 0.8 µM) it was 1.06; in the assay with FG-4592 + Foretinib (first compound 2.53 µM) it was 1.04; in the assay with FG-4592 + Foretinib (first compound 8 µM), 1.02; with FG-4592 + Bortezomib (first compound 0.08 µM), 0.824. Also, the relative viability stood at 0.745 with FG-4592 + Bortezomib (first compound 0.253 µM); 0.872 with FG-4592 + Bortezomib (first compound 0.8 µM); 0.884 in the assay with FG-4592 + Bortezomib (first compound 2.53 µM); 0.832 with FG-4592 + Bortezomib (first compound 8 µM); 0.913 with IU1-47 + Tozasertib (first compound 0.08 µM); 0.903 in the assay with IU1-47 + Tozasertib (first compound 0.253 µM). Further, the relative viability with IU1-47 + Tozasertib (first compound 0.8 µM) was 0.922; in the assay with IU1-47 + Tozasertib (first compound 2.53 µM), 0.851; in the assay with IU1-47 + Tozasertib (first compound 8 µM), 0.773; in the assay with FG-4592 + Linsitinib (first compound 0.08 µM), 0.965; with FG-4592 + Linsitinib (first compound 0.253 µM), 0.974; with FG-4592 + Linsitinib (first compound 0.8 µM) it was 0.969. Also, the relative viability with FG-4592 + Linsitinib (first compound 2.53 µM) came out at 1.04; in the assay with FG-4592 + Linsitinib (first compound 8 µM), 1.01.
Take PC-14: the relative viability with FG-4592 + Foretinib (first compound 0.08 µM) turned out to be 1.09; in the assay with FG-4592 + Foretinib (first compound 0.253 µM) it was 0.997; with FG-4592 + Foretinib (first compound 0.8 µM), 1; with FG-4592 + Foretinib (first compound 2.53 µM) it was 0.965; in the assay with FG-4592 + Foretinib (first compound 8 µM), 0.987; with FG-4592 + Bortezomib (first compound 0.08 µM) it was 0.859. The relative viability was found to be 0.946 with FG-4592 + Bortezomib (first compound 0.253 µM); 0.947 with FG-4592 + Bortezomib (first compound 0.8 µM); 0.949 with FG-4592 + Bortezomib (first compound 2.53 µM); 1.01 with FG-4592 + Bortezomib (first compound 8 µM); 0.707 with IU1-47 + Tozasertib (first compound 0.08 µM); 0.685 in the assay with IU1-47 + Tozasertib (first compound 0.253 µM). For the same cell line, the relative viability was determined as 0.661 with IU1-47 + Tozasertib (first compound 0.8 µM); 0.581 with IU1-47 + Tozasertib (first compound 8 µM); 0.977 with FG-4592 + Linsitinib (first compound 0.08 µM); 0.941 with FG-4592 + Linsitinib (first compound 0.253 µM); 1 in the assay with FG-4592 + Linsitinib (first compound 0.8 µM); 0.991 with FG-4592 + Linsitinib (first compound 2.53 µM). Moreover, in the assay with FG-4592 + Linsitinib (first compound 8 µM), the relative viability came out at 0.891.
With RERF-LC-KJ, the relative viability with FG-4592 + Foretinib (first compound 0.08 µM) came to 0.853; in the assay with FG-4592 + Foretinib (first compound 0.253 µM), 0.868; with FG-4592 + Foretinib (first compound 0.8 µM) it was 0.817; with FG-4592 + Foretinib (first compound 2.53 µM), 0.888; in the assay with FG-4592 + Foretinib (first compound 8 µM), 0.771; with FG-4592 + Bortezomib (first compound 0.08 µM), 0.99. Besides, the relative viability in the assay with FG-4592 + Bortezomib (first compound 0.253 µM) amounted to 0.975; with FG-4592 + Bortezomib (first compound 0.8 µM), 0.967; in the assay with FG-4592 + Bortezomib (first compound 2.53 µM), 1.11; with FG-4592 + Bortezomib (first compound 8 µM), 1.06; with IU1-47 + Tozasertib (first compound 0.08 µM), 0.495; with IU1-47 + Tozasertib (first compound 0.253 µM) it was 0.567. The relative viability was found to be 0.522 with IU1-47 + Tozasertib (first compound 0.8 µM); 0.452 with IU1-47 + Tozasertib (first compound 2.53 µM); 0.405 with IU1-47 + Tozasertib (first compound 8 µM); 0.835 in the assay with FG-4592 + Linsitinib (first compound 0.08 µM); 0.958 in the assay with FG-4592 + Linsitinib (first compound 0.253 µM); 0.919 with FG-4592 + Linsitinib (first compound 0.8 µM). Further, the relative viability amounted to 0.901 with FG-4592 + Linsitinib (first compound 2.53 µM) and 0.82 with FG-4592 + Linsitinib (first compound 8 µM).
Turning to SK-LU-1, the relative viability turned out to be 0.866 with FG-4592 + Foretinib (first compound 0.08 µM); 0.646 with FG-4592 + Foretinib (first compound 0.253 µM); 0.767 in the assay with FG-4592 + Foretinib (first compound 0.8 µM); 0.881 with FG-4592 + Foretinib (first compound 2.53 µM); 0.631 with FG-4592 + Foretinib (first compound 8 µM); 0.849 in the assay with FG-4592 + Bortezomib (first compound 0.253 µM). Moreover, the relative viability with FG-4592 + Bortezomib (first compound 0.8 µM) was found to be 0.825; with FG-4592 + Bortezomib (first compound 2.53 µM) it was 1.31; with FG-4592 + Bortezomib (first compound 8 µM) it was 0.978; in the assay with IU1-47 + Tozasertib (first compound 0.08 µM), 0.316; with IU1-47 + Tozasertib (first compound 0.253 µM) it was 0.361; with IU1-47 + Tozasertib (first compound 0.8 µM), 0.309. Besides, the relative viability in the assay with IU1-47 + Tozasertib (first compound 2.53 µM) came out at 0.318; with IU1-47 + Tozasertib (first compound 8 µM), 0.292; with FG-4592 + Linsitinib (first compound 0.08 µM), 1.02; in the assay with FG-4592 + Linsitinib (first compound 0.253 µM), 0.89; in the assay with FG-4592 + Linsitinib (first compound 0.8 µM) it was 0.971; in the assay with FG-4592 + Linsitinib (first compound 8 µM), 0.928.
Turning to SW 1573, the relative viability was determined as 0.913 in the assay with FG-4592 + Foretinib (first compound 0.08 µM); 0.978 with FG-4592 + Foretinib (first compound 0.253 µM); 0.884 with FG-4592 + Foretinib (first compound 0.8 µM); 0.987 in the assay with FG-4592 + Foretinib (first compound 2.53 µM); 0.963 in the assay with FG-4592 + Foretinib (first compound 8 µM); 1.04 in the assay with FG-4592 + Bortezomib (first compound 0.08 µM). Further, the relative viability in the assay with FG-4592 + Bortezomib (first compound 0.253 µM) was 0.954; with FG-4592 + Bortezomib (first compound 0.8 µM), 0.963; with FG-4592 + Bortezomib (first compound 2.53 µM), 1; with FG-4592 + Bortezomib (first compound 8 µM), 1; in the assay with IU1-47 + Tozasertib (first compound 0.08 µM), 0.17; with IU1-47 + Tozasertib (first compound 0.253 µM), 0.167. Further, the relative viability worked out at 0.176 with IU1-47 + Tozasertib (first compound 0.8 µM); 0.184 with IU1-47 + Tozasertib (first compound 2.53 µM); 0.143 with IU1-47 + Tozasertib (first compound 8 µM); 0.732 with FG-4592 + Linsitinib (first compound 0.08 µM); 0.714 in the assay with FG-4592 + Linsitinib (first compound 0.253 µM); 0.893 in the assay with FG-4592 + Linsitinib (first compound 0.8 µM). Also, the values for the relative viability with FG-4592 + Linsitinib (first compound 2.53 µM) and with FG-4592 + Linsitinib (first compound 8 µM) were 0.721 and 0.782, respectively.
On to UMC-11, for which the relative viability with FG-4592 + Foretinib (first compound 0.08 µM) came out at 1.06; with FG-4592 + Foretinib (first compound 0.253 µM), 1.03; in the assay with FG-4592 + Foretinib (first compound 0.8 µM) it was 0.918; in the assay with FG-4592 + Foretinib (first compound 2.53 µM), 1.03; in the assay with FG-4592 + Foretinib (first compound 8 µM), 0.671; with FG-4592 + Bortezomib (first compound 0.08 µM), 0.752. Besides, the relative viability with FG-4592 + Bortezomib (first compound 0.253 µM) is 0.771; with FG-4592 + Bortezomib (first compound 0.8 µM), 0.633; with FG-4592 + Bortezomib (first compound 2.53 µM) it was 0.75; with FG-4592 + Bortezomib (first compound 8 µM), 0.692; with IU1-47 + Tozasertib (first compound 0.08 µM) it was 0.215; in the assay with IU1-47 + Tozasertib (first compound 0.253 µM) it was 0.209. The relative viability with IU1-47 + Tozasertib (first compound 0.8 µM) came out at 0.201; with IU1-47 + Tozasertib (first compound 2.53 µM) it was 0.218; in the assay with IU1-47 + Tozasertib (first compound 8 µM), 0.214; with FG-4592 + Linsitinib (first compound 0.08 µM), 0.974; with FG-4592 + Linsitinib (first compound 0.253 µM), 0.93; with FG-4592 + Linsitinib (first compound 0.8 µM), 0.933. Besides, the results for the relative viability with FG-4592 + Linsitinib (first compound 2.53 µM) and with FG-4592 + Linsitinib (first compound 8 µM) were 1.06 and 0.87, respectively.
